row,SMILES,melting point [°C]
1,CCOC(=O)c1ccc(N2CCC(NC(=O)OC(C)(C)C)CC2)nc1,140 to 142
2,CC(C)CCCC(C)C1CC=C2C3=C(CCC21C)C1(C)CC=CCC1CC3 (stereo unspecified),105
3,CNC(=S)NS(=O)(=O)c1cc(CCNC(=O)c2cc(Cl)ccc2OC)ccc1-c1ccccc1,192 to 196
4,C1=C(c2cc(-c3ccccc3)no2)CCN(Cc2c[nH]c3ncccc23)C1,224 to 226
5,O=C(O)Cc1ccccc1Oc1ccccc1,82 to 85
6,O=C(O)[C@@H](CCN1Cc2ccccc2C1=O)Oc1c(Br)cc(-c2c3ccccc3c(Br)c3sc4ccccc4c23)cc1Br,239 to 241
7,CC1(C)C(=O)Nc2cc3[nH]c(-c4ccco4)nc3cc21,311 to 316
8,c1ccc(N2C(=NCCCn3ccnc3)c3cccc4cccc2c34)cc1,103 to 105
9,O=C(Cn1c(-c2ccc(F)cc2)ncc(NC(=O)OCc2ccccc2)c1=O)NC(Cc1ccccc1)C(=O)C1=NCCO1 (stereo unspecified),215 to 220
10,O=C1CC(c2cccc(-n3cncn3)c2)=Nc2ccc(-c3ccc(F)cc3)cc2N1,241 to 245
11,COc1ccc(-c2nc(-c3cccn3CC(=O)OCCC(C)C)sc2-c2ccc(OC)cc2)cc1,98.5 to 102
12,O=c1c(NCCCOc2cccc(CN3CCCCC3)c2)c(NCc2cccnc2)c1=O,174 to 178
13,CC(C)(C)OC(=O)c1nc(-c2ccccc2)[nH]c1-c1ccncc1,205 to 206
14,NNC(=O)C[C@H](O)COCc1ccccc1,96.9
15,COc1ccc(-c2nc(-c3c[nH]c4ccccc34)[nH]c2-c2ccc(OC)cc2)cc1,246
16,CCCOc1ccccc1-c1nc2c(CCCCc3ccccc3)cccc2c(=O)[nH]1,82
17,O=CN(N=Cc1cccnc1)c1ccccc1,129 to 132
18,COC(=O)c1ccc2c(=O)n(Cc3ccc(OC)cc3)c(=O)[nH]c2c1,254 to 256
19,CCCn1cc(Cc2ccc(C(=O)OC)cc2OC)c2cc(C=O)ccc21,99 to 100
20,COCC1CN(c2ccc(C3CCC(OC)CC3)cc2)C(=O)O1 (stereo unspecified),82 to 83
21,CS(=O)(=O)c1ccc(C2=C(c3ccccc3)C(=O)C2)cc1,139 to 140
22,CCOC(=O)C(N)N=Nc1ccc(Br)cc1C(=O)c1ccccn1 (stereo unspecified),156 to 157
23,O=c1[nH]nc(C(F)(F)F)s1,54 to 55

row,SMILES,melting point [°C]
1,CC(C)c1csc2[nH]c(=O)c(=O)[nH]c12,> 250
2,OCc1cn2c(n1)CN=C(c1ccccc1)c1cc(C(F)(F)F)ccc1-2,193 to 194
3,CC1CCc2c(c(-c3ccccc3)nc(=O)n2C(C)C)C1 (stereo unspecified),175 to 177
4,Oc1ccc(CCNCC(O)c2ccccn2)cc1 (racemic),112 to 114
5,CCCCCCCCCCCCCCCCn1c2cc(Br)ccc2c2ccc(Br)cc21,85 to 86
6,COC1N=C(c2ccccc2Cl)c2cc(Cl)ccc2-c2c[nH]cc21 (stereo unspecified),215 to 218
7,CCOC(=O)CC1(c2ccccc2OCC)C(=O)Nc2ccc(Cl)cc21 (stereo unspecified),181
8,Cc1cc(C)c(Nc2nc(C)ncc2S(=O)(=O)c2ccc(-c3ccccn3)cc2)c(C)c1,201 to 203
9,COc1cc2ccc(CC(=O)Cl)cc2cc1OC,51 to 62
10,N#CCc1cccc(Cn2ccc(OCc3ccc(F)cc3F)c(Br)c2=O)c1,120 to 121
11,OC1(c2nccc3ccccc23)CCNCC1,138 to 140
12,OC1CC2(CCNC2)c2ccc(F)cc21 (stereo unspecified),162 to 164
13,O=[N+]([O-])c1cc(Cl)c(OCc2ccccc2-c2ccccc2)c(Cl)c1,83 to 84.5
14,O=S1(=O)c2cccc3cccc(c23)N1CC(Br)CN1CCN(c2ccc(F)cc2)CC1 (stereo unspecified),102
15,Cc1cc(O)cc2c1C(C)(C)CC2(C)C,120
16,CC1(C)CCCC(C)(C)N1CCOC(=O)C(Cc1ccccc1)(Cc1ccccc1)C(=O)OCCN1C(C)(C)CCCC1(C)C,77 to 78
17,COc1ccc(C(C(=O)OC(C)(C)C)N(C(=O)CNC(=O)Nc2cccc(C)c2)c2ccccc2)cc1 (racemic),206
18,CN1CC=C(c2c[nH]c3ccc(N)cc23)CC1,200 to 203
19,COc1ccc2cnc(Nc3ccc(F)c(C)c3)nc2c1C1CCCC1,208 to 209
20,O=C1Nc2ccccc2N(C(=O)N2CCCC(CCCN3CCCC3)C2)c2ncccc21 (stereo unspecified),174 to 176
21,O=S1(=O)N=CNc2ccc(F)cc21,260 to 263
22,N#CCc1ccc(OCc2ccccc2)c(OCc2ccccc2)c1CCc1cccc(OCc2ccccc2)c1,90
23,CN1CCCC(CC(=O)c2ccc(Cl)c(Cl)c2)C1 (stereo unspecified),69 to 71

row,SMILES,melting point [°C]
1,CCOc1ccc(C2=NN(C3CCCCCC3)C(=O)[C@H]3CC=CC[C@@H]23)cc1OCC (relative stereo),92 to 93
2,Cc1cc(=O)[nH]n(Cc2ccccc2)c1=O,> 200
3,CCCCc1nn(-c2ccccc2C(F)(F)F)c(=O)n1Cc1ccc(-c2ccccc2S(N)(=O)=O)cc1,74 to 76
4,CN1CCCCNC1=C[N+](=O)[O-],88 to 89
5,CCn1cc(-c2sc(NC(=O)c3ccncc3)nc2-c2ccco2)ccc1=O,285 to 289
6,O=C(Nc1ccc(OCCN2CCOCC2)c2ccccc12)c1cccc(N2CCOCC2)c1,90 to 92
7,CCOc1cccc(C)c1S(=O)(=O)N=C=O,40
8,O=C(O)C=C1c2ccccc2CCc2cc(Cl)ccc21,155 to 175
9,Cc1cccc(-c2nc(C(C)C)[nH]c2-c2ccc(F)c(-c3ccco3)c2)n1,78 to 90
10,COc1ccc2c(c1)C(=O)C(=Cc1cccc([N+](=O)[O-])c1)CC2,175 to 176
11,CC1(C)CC(C)(C)CC(C)(NC=O)C1,104 to 106
12,O=C(Nc1ccc2ccc(Cl)nc2n1)c1ccc(F)cc1,236
13,CC(=O)N1C(=O)C(C(=O)Cc2ccccc2)c2ccccc21 (stereo unspecified),149 to 151
14,CNC(=O)N(O)C(C)c1cc2ccccc2s1 (stereo unspecified),149 to 150
15,CCCCc1c(/C=C/C(=O)Oc2ccc([N+](=O)[O-])cc2)cc(OC)c2ccc(OC)cc12,144 to 146
16,O=C(CCl)Nc1nc(Cl)c(-c2ccccc2)s1,215 to 216
17,COc1ccc(C(=O)Nc2ccc(N3CCC(NC[C@H](O)COc4cccc5[nH]c6ccccc6c45)CC3)cc2)cc1OC,183 to 191
18,CC(C)(C)n1cnc(-c2ccc(F)cc2)c1-c1ccncc1,199
19,CN1CCOC1=C(C#N)C=C1Nc2ccccc2C1=O,222 to 226
20,COC(=O)C(=O)c1ccc(OCOc2ccccc2)cc1,52 to 54
21,Brc1cccc(-c2ccccc2)n1,50

# Further lines, results first:
row,melting point [°C],SMILES
1,86 to 87,CCNC(=O)c1c(F)cccc1[Si](C)(C)C
2,87 to 90,CN(C)c1nnc(-c2nnc(SCCC(F)=C(F)F)o2)o1
3,187 to 189,Nc1cccc(-c2ccc3nnn(Cc4ccc5ncccc5c4)c3n2)c1
4,189 to 190,CC(=O)OCCCCn1c(=O)sc2c(=O)[nH]c(N)nc21
5,155 to 157,CC(C#Cc1ccc(Br)cc1)N(O)C(N)=O (stereo unspecified)
6,175 to 177,COc1cc(OC)nc(CC(=O)O)n1
7,154 to 157,COC(=O)CCc1cc2cc(Cl)ccc2n1S(=O)(=O)c1ccc(NC(C)=O)cc1
8,218 to 221,Cc1nc2c(O)c(CCC(=O)c3ccccc3F)c(C(=O)N(C)C)cc2n1C
9,120,O=C(Nc1nccs1)c1cccc(C[C@@H]2COc3ccc(OCc4nc5cc(F)ccc5s4)cc3[C@@H]2O)c1 (relative stereo)
10,222 to 225,O=C(O)c1cn(C2CCN(c3c(F)cc4c(=O)c(C(=O)O)cn(C5CC5)c4c3F)C2)nn1 (stereo unspecified)
11,155 to 160,CS(=O)(=O)c1ccc(C(CC2CCCC2)C(=O)Nc2ncc(C(N)=O)s2)cc1 (stereo unspecified)
12,130 to 133,COCCN(C)Cc1ccc(NC(=O)C#Cc2ccc(-c3ccc(Cl)cc3)cc2)cc1
13,139 to 143,O=C1C(CCO)Oc2cc([N+](=O)[O-])ccc2N1Cc1ccccc1[N+](=O)[O-] (stereo unspecified)
14,191 to 193,CCCc1nc(N2CCc3ccccc3CC2)c(C#N)c(=O)[nH]1
15,159 to 161,CN(C)C(=O)Nc1cccc(CCC#N)c1
16,171 to 173,CCN1CCN(c2cc3ccccc3c(=O)[nH]2)C[C@@H]1CO
17,90 to 92,CCOC(=O)OCn1c(SCc2nccc3ccsc23)nc2ccccc21

row,melting point [°C],SMILES
1,163,CCCCc1ncc(/C=C(\Cc2cccs2)C(=O)O)n1Cc1ccc(C(=O)O)cc1[N+](=O)[O-]
2,103 to 104,CCOC(=O)C(=C(c1ccc(F)cc1)c1ccc(F)cc1)n1nnnc1C
3,113 to 114,CN1CC(CCN2CCN(c3ccc(Cl)cc3)CC2)OC1=O (stereo unspecified)
4,131 to 133,CC(C)(C)n1nnc(C(C=O)=C(c2ccc(F)cc2)c2ccc(F)cc2)n1
5,91,Oc1ccc2ccc(F)c(F)c2c1F
6,88 to 89,Cc1ccc(C)c(OCc2ccccc2C(=O)c2ccnn2C)c1
7,275 to 277,C[C@]12CC[C@H](O)CC1=CCC1C2CC[C@@]2(C)C1CC[C@@H]2c1c[nH]nn1 (stereo partly specified)
8,126 to 127,CC(=O)NC(COC1CCN(c2nc3ccc(OCC4CC4)cc3o2)CC1)C(F)(F)F (stereo unspecified)
9,94.5 to 96.5,CCOC(=O)c1cc2c(cc(C)n2OC)nc1C(=O)OCC
10,86 to 88,CCCC(=O)NCCc1cc(-c2cccc(C(=O)OC)c2)cc2ccc(OC)cc12
11,159 to 165,CCCCCC(=NOC)c1cc(C#N)c(=O)[nH]c1C
12,112 to 113,CCOC(=O)c1cnn(-c2c(Cl)cc(Cl)cc2Cl)c1C
13,100 to 101,COc1ccc(C(=CC#N)c2cccc(N)c2)cc1OC
14,168 to 171,COc1ccc(-n2nc(Sc3ccc(Cl)c(Cl)c3)c(C)c(C#N)c2=O)cc1
15,241 to 242,COc1ccc(-n2ncc(C(=O)O)c2Cl)cc1
16,165 to 168,O=C(NCc1ccc(C(F)(F)F)cc1)c1ccnc(NC(=O)c2ccccc2)c1
17,123 to 124,CC(Sc1nc(SCc2ccccc2)n[nH]1)C(=O)O (stereo unspecified)

# Reference: a melting point compilation (Tetko et al.; mined from patent text by program, amines drawn as free bases though some values may be those of a salt)
